Reference: article PMC3004257, “Purine nucleoside phosphorylase from Schistosoma mansoni in complex with ribose-1-phosphate” (Journal of Synchrotron Radiation, 2010)

How the values were obtained:
[1] = molecular target: T1, SmPNP (Schistosoma mansoni purine nucleoside phosphorylase) (Schistosoma mansoni, UniProt Q9BMI9); experiment: X-ray crystallography, crystal soaking; settings: soaking aimed at ternary complex with R1P; base binding site
T1 construct: low-molecular-mass homotrimer
T1 sequence (Q9BMI9 1-287): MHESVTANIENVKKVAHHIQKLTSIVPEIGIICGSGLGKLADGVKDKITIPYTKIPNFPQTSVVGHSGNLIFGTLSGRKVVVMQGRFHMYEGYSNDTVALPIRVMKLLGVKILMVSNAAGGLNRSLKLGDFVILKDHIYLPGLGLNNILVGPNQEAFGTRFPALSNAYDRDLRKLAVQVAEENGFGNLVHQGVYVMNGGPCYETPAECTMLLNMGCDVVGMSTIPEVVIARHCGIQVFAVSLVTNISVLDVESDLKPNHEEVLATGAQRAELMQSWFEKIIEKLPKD

[2] = molecular target: T1, SmPNP (Schistosoma mansoni purine nucleoside phosphorylase); experiment: X-ray crystallography, crystal soaking, […] Å; format: binding; settings: 5 mM R1P soak up to 48 h, 20% PEG 1500, 15 mM sodium acetate pH 4.9 or 5.0, 20% glycerol; phosphate and ribose sites of all three subunits; acetate in base site

O=c1[nH]cnc2nc[nH]c12 [hypoxanthine]
X-ray crystallography, crystal soaking [1]: by soaking were unsuccessful, SmPNP–hypoxanthine complexes being obtained instead

O=P(O)(O)O[C@H]1O[C@H](CO)[C@@H](O)[C@H]1O [ribose-1-phosphate]
X-ray crystallography, crystal soaking, 2.0 Å [2]: we have been able to obtain the elusive binary complex of SmPNP with R1P
